This is an account of results in patent US11084829B2, “Ubiquitin-specific-processing protease 7 (USP7) modulators and uses thereof” (RAPT THERAPEUTICS, INC., priority 2018, dated 2021).

One series relates to LA-N-2. Kind of series: Cell viability (CellTiter-Glo), LA-N-2. The class given is cell-based. To be noted: LA-N-2, neuroblastoma, MYCN-amplified, p53-mutant. As for the experimental part: (§1) CHP-134 was purchased from Sigma Aldrich, MOLM-13 was purchased from AddexBio, and NB-1 was purchased from Sekisui XenoTech. All other cell lines were purchased from American Type Culture Collection. For all cell lines, identity was confirmed by short tandem repeat profiling and culturing was performed in recommended growth medium. For studies evaluating cellular effects of compound treatment, 250 to 2,000 cells in 40 μl of recommended medium were seeded per well in 384-well plates (Corning 3764). DMSO-solubilized compounds were added in duplicate in a two-fold dilution series using a D300e Digital Dispenser (Hewlett-Packard). Following a 5-day incubation, cell viability was measured using CellTiter-Glo (Promega) following the manufacturer's instructions. Luminescence was measured using a CLARIOstar plate reader (BMG LABTECH) and normalized to that of DMSO-treated cells. IC50 values were determined by non-linear regression using a 4-parameter fit in Prism (GraphPad Software). Inhibitor profiling of the 430-cell line panel was conducted and analyzed similarly.
(§2) In addition to the many p53 wild-type cell lines in the cell line panel that were sensitive to USP7 inhibition, a subset of p53 mutant cell lines that were inhibited by our USP7 inhibitors were identified and are shown in Table 5.
For orientation: In ATP-based viability assays light output follows the ATP content of the culture.

For a further series, the system named is SH-SY5Y. In words: Cell viability (CellTiter-Glo), SH-SY5Y. The class given is cell-based. The settings on record: Homo sapiens, neuroblastoma, MYC amplified, p53 wild-type. How it is done:
as §1
(§3) USP7 has been reported to stabilize MYCN (also referred to as MYCN proto-oncogene, a gene that is a member of the MYC family which is over-expressed in a variety of tumors). Since MYCN amplification is an established driver mutation in neuroblastoma, the effect of USP7 inhibition on a panel of p53 wild-type, MYCN- or MYC-amplified neuroblastoma cell lines was tested. The USP7 inhibitors of Examples 31 and 124 reduced viability of all three MYCN-amplified and two MYC-amplified neuroblastoma cell lines tested as shown in Table 4. Idasanutlin was used as a positive control, and as expected these cell lines were also sensitive to this compound.

The subject of another series is OCI-AML5. In words: Cell viability (CellTiter-Glo), OCI-AML5. It counts as cell-based. The settings on record: Homo sapiens, OCI-AML-5, p53 wild-type. How it is done:
as §1
(§4) USP7 inhibition by the compounds of Examples 31 and 124 reduced the viability of several p53-wild type blood cancer cell lines, including M07e, OCI-AML5 and MOLM13, in vitro as shown in the following Table 3. Idasanutlin was used as a positive control, and as expected these cell lines were also sensitive to this compound.

The next series concerns CHP-134. Kind of series: Cell viability (CellTiter-Glo), CHP-134. The class given is cell-based. The settings on record: Homo sapiens; CHP-134, neuroblastoma, MYCN amplified, p53 wild-type. As for the experimental part:
as §1, §3

The test system of another series is MM.1S. In words: Cell viability (CellTiter-Glo), MM.1S. To be noted: Homo sapiens, MM1.S, p53 wild-type. The class given is cell-based. As for the experimental part:
as §1, §4

A further series relates to M07e. Kind of series: Cell viability (CellTiter-Glo), M07e. The settings on record: M-07e, AML, p53 wild-type. The class given is cell-based. As for the experimental part:
as §1, §4

For another series, the system named is H526 xenograft. Kind of series: H526 xenograft model in athymic nude mice. It counts as in vivo. How it is done: (§5) MM. 1S and H526 xenograft studies were conducted according to the guidelines approved by the Applicant's Institutional Animal Care and Use Committee (IACUC). MM.1S cells were inoculated in PBS into irradiated NOD/SCID mice, while H526 cells were inoculated in PBS/Matrigel (Corning) into Nu/Nu mice (Jackson Laboratories). Mice were randomized into groups when mean tumor size reached 150 mm^3 (MM.1S) or 50-100 mm^3 (H526), respectively, and drug administration by oral gavage was started on day of randomization. Tumor volumes and body weights were subsequently measured twice per week. Tumor volumes were calculated using the formula: V=0.5(A×B^2), where A and B are the long and short diameters of the tumor, respectively.
(§6) The effect of pharmacological inhibition of USP7 on the viability of the p53 mutant small cell lung cancer cell line, H526 was further evaluated. […] In contrast, idasanutlin, whose inhibitory effect is dependent on a functional p53 pathway, had no effect.

Series [1] can be described thus: Tolerability in tumor-free mice (preliminary to H526 study). To be noted: preliminary testing, oral 50 mg/kg twice daily or 100 mg/kg daily. The class given is in vivo.
A further series relates to MOLM13. Kind of series: Cell viability (CellTiter-Glo), MOLM13. The class given is cell-based. To be noted: Homo sapiens, MOLM-13; MOLM13, AML, p53 wild-type. How it is done:
as §1, §4

The test system of the next series is MYCN. In words: Western blot of MYCN in H526 cells. The class given is cell-based. To be noted: after 2, 8 or 24 hours of treatment. As for the experimental part: (§7) For Western blotting, compound-treated cells were lysed in RIPA lysis buffer (ThermoScientific) containing Halt Protease and Phosphatase Inhibitor Cocktail (Life Technologies). Lysates were quantified using the BCA protein assay (Pierce) and equivalent protein was separated by SDS-PAGE (4-12%, ThermoScientific). Following electrophoresis, proteins were transferred to PVDF membranes. […] Caspase activation assays were performed on compound-treated cells using the Caspase-Glo 3/7 Assay Kit (Promega) according to the manufacturer's protocol, and luminescence was measured using a CLARIOstar plate reader (BMG LABTECH). […] Data were collected using FACSCanto (Becton Dickinson) and Attune (Thermo Fisher Scientific) flow cytometers and analyzed with FlowJo software (FlowJo LLC). […] Lysates were quantified using the BCA protein assay (Pierce) and equivalent protein was used in the PathScan Phospho-S6 Ribosomal Protein (Ser235/236) Sandwich ELISA Kit (Cell Signaling) according to the manufacturer's protocol. Absorbance was measured using the Spectramax 300 plate reader (Molecular Devices).
(§8) The effect of pharmacological inhibition of USP7 on the viability of the p53 mutant small cell lung cancer cell line, H526 was further evaluated. […]
For orientation: A western blot detects proteins with antibodies after separation by electrophoresis.

A further series has as its system NB-1. Kind of series: Cell viability (CellTiter-Glo), NB-1. It counts as cell-based. To be noted: Homo sapiens, NB1; NB-1, neuroblastoma, MYCN amplified, p53 wild-type. How it is done: as §1, §3
A further series deals with USP7 (Homo sapiens, UniProt Q93009). In words: USP7 inhibitory potency (IC50). It counts as biochemical. How it is done: Activity for compounds described herein is provided in Table 2, wherein potency levels are provided as follows: (Potency: USP7 IC50: A<0.01 μM; B=0.01-0.1 μM; C=>0.1 μM.
Sequence of USP7 (Q93009 whole entry): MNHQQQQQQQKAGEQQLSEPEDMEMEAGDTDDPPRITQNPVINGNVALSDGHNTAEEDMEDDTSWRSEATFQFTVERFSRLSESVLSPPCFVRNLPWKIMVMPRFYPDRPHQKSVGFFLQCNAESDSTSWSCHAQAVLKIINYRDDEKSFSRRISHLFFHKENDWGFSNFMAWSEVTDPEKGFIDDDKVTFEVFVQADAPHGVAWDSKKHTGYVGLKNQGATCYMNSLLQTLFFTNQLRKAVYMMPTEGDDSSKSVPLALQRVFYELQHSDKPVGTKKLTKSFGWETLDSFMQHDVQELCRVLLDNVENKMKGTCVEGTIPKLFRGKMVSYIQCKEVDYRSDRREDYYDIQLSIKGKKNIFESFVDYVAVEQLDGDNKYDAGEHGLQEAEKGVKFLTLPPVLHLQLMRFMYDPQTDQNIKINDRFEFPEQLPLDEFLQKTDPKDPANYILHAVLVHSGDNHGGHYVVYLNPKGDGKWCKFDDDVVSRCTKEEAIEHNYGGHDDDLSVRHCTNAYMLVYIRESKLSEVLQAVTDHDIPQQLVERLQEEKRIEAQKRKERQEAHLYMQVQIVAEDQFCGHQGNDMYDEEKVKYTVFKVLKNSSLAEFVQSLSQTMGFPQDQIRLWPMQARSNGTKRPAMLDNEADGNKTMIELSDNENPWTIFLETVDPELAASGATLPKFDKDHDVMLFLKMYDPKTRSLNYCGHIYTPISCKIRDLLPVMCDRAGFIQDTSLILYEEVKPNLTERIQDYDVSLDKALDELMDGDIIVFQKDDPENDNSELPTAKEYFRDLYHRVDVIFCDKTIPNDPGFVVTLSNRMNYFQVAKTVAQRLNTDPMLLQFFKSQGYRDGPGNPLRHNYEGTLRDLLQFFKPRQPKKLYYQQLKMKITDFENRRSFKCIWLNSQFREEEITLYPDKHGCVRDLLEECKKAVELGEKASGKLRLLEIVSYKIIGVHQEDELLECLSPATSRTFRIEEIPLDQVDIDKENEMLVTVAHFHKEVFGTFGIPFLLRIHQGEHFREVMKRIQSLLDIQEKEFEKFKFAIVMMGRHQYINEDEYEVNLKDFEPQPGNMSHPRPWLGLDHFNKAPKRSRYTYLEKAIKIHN
The next series deals with SK-N-DZ. Kind of series: Cell viability (CellTiter-Glo), SK-N-DZ. The class given is cell-based. To be noted: Homo sapiens, neuroblastoma, MYCN-amplified, p53-mutant. As for the experimental part:
as §1, §2

In another series the test system is p21. In words: Western blot of p21 in H526 cells. It counts as cell-based. To be noted: after 2, 8 or 24 hours of treatment. How it is done:
as §7, §8

A further series relates to H526. Kind of series: Cell viability (CellTiter-Glo), H526. To be noted: Homo sapiens, NCI-H526. The class given is cell-based. As for the experimental part:
as §1, §2, §6

In a further series the test system is MM.1S xenograft. Kind of series: MM.1S xenograft model in NOD-SCID mice. The class given is in vivo. How it is done:
as §5
(§9) The effects of USP7 inhibition were assessed in vivo in the MM.1S xenograft model in NOD-SCID mice via daily oral dosing of the USP7 inhibitor 3-((7-(5-chloro-2-(((2S,6S)-2,6-dimethylpiperazin-1-yl)methyl)-3-methylphenyl)thieno[3,2-b]pyridin-2-yl)methyl)-3-azabicyclo[3.1.0]hexane-2,4-dione (the compound of Example 31) at 50 mg/kg and 100 mg/kg. […] However, brief dosing holidays allowed the mice to recover and dosing to continue.

Series [2] can be described thus: Tolerability in tumor-free NOD-SCID mice. The class given is in vivo. To be noted: daily oral 50 mg/kg and 100 mg/kg, preliminary experiments. How it is done: as §9
For the next series, the system named is EOL-1. Kind of series: Cell viability (CellTiter-Glo), EOL-1. It counts as cell-based. To be noted: Homo sapiens, EOL1; EOL-1, AML, p53 wild-type. How it is done: as §1, §4
In a further series the test system is HCC1937. In words: Cell viability (CellTiter-Glo), HCC1937. The settings on record: Homo sapiens; HCC1937, breast, triple-negative, BRCA1 mutant, p53-mutant. The class given is cell-based. How it is done:
as §1, §2

A further series concerns MOLP8. Kind of series: Cell viability (CellTiter-Glo), MOLP8. The class given is cell-based. To be noted: Homo sapiens, MOLP-8; MOLP8, MM, p53 wild-type. As for the experimental part:
as §1, §4

The test system of a further series is NCI-H929. In words: Cell viability (CellTiter-Glo), NCI-H929. It counts as cell-based. The settings on record: Homo sapiens; NCI-H929, MM, p53 wild-type. As for the experimental part: as §1, §4
The mark [3] stands for this setting: H526 xenograft, athymic nude mice, twice-daily oral 50 mg/kg (FIG. 2) or daily oral 100 mg/kg (data not shown).
[4] abbreviates: H526, lung, small cell, p53-mutant, read-out: CC50.
The mark [5] stands for this setting: H526, p53 mutant small cell lung cancer, CellTiter-Glo assay, read-out: CC50 (viability of H526 in vitro).

Read-outs that look alike come from different tables or passages of the source.

As for `Cc1cc(Cl)cc(-c2ccnc3cc(CN4C(=O)C5C(C4=O)C5(C)C)sc23)c1C[C@@H]1CNCCO1` (stereo partly drawn) [Example 124, 3-((7-(5-chloro-3-methyl-2-(((R)-morpholin-2-yl)methyl)phenyl)thieno[3,2-b]pyridin-2-yl)methyl)-6,6-dimethyl-3-azabicyclo[3.1.0]hexane-2,4-dione], the half-maximal cytotoxic concentration (CC50) was 0.2 µM with LA-N-2; 1.9 µM in the series on SH-SY5Y; 0.2 µM in the series with OCI-AML5; 0.6 µM in the series with CHP-134; 0.1 µM in the series with MM.1S; 0.2 µM in the series on M07e. The CC50 with MOLM13 is 0.4 µM; with NB-1 it was 0.5 µM; with SK-N-DZ it was 0.2 µM; in the series with H526 (setting [4]) it was 0.5 µM; in the series with H526 (setting [5]), 0.5 µM. Further, in the series on H526 xenograft (setting [3]), the survival entry is on record as “prolonged survival”. For the same compound, the tumor growth result in the series on H526 xenograft (setting [3]) is “inhibited tumor growth”. Further, the tolerability entry was “well tolerated” in the series with H526 xenograft (tumor-bearing mice of the H526 study, oral 50 mg/kg twice daily or 100 mg/kg daily) and “well tolerated” in series [1]. In the series with MYCN, the MYCN protein levels entry was “did not reduce MYCN protein levels”. In addition, the IC50 on USP7 was less than 0.01 µM. The p21 level result in the series on p21 is “did not induce any change in p21 level”.

Turning to `Cc1cc(Cl)cc(-c2ccnc3cc(CN4C(=O)C5CC5C4=O)sc23)c1CN1[C@@H](C)CNC[C@@H]1C` (stereo partly drawn) [Example 31, 3-((7-(5-chloro-2-(((2S,6S)-2,6-dimethylpiperazin-1-yl)methyl)-3-methylphenyl)thieno[3,2-b]pyridin-2-yl)methyl)-3-azabicyclo[3.1.0]hexane-2,4-dione], the tumor growth entry in the series on MM.1S xenograft (MM.1S xenograft, NOD-SCID mice, daily oral dosing at 50 mg/kg and 100 mg/kg, FIG. 1A) is on record as “effectively inhibited MM.1S tumor growth”. In the series on MM.1S xenograft (MM.1S xenograft, NOD-SCID mice, daily oral dosing at 50 mg/kg and 100 mg/kg, FIG. 1B), the survival result is “prolonged survival in a dose-dependent manner”. In the series with MM.1S xenograft (tumor-bearing NOD-SCID mice, longer-term xenograft study, daily oral 50 and 100 mg/kg, recovered with brief dosing holidays), the body weight result is listed as “dose-dependent body weight loss in a fraction of mice”. Further, the CC50 in the series on LA-N-2 amounted to 0.6 µM; in the series with SH-SY5Y, 1.8 µM; in the series with OCI-AML5, 0.2 µM; in the series with CHP-134, 0.5 µM; in the series on EOL-1, 0.04 µM; with MM.1S, 0.1 µM. Further, the CC50 in the series with M07e was found to be 0.1 µM; in the series on MOLM13, 0.1 µM; with NB-1 it was 0.6 µM; in the series on HCC1937 it was 0.1 µM; in the series on SK-N-DZ, 0.2 µM; with MOLP8, 0.2 µM. The values for the 50% cytotoxic concentration (CC50) in the series with H526 (setting [4]), in the series on H526 (setting [5]) and with NCI-H929 were 0.5 µM, 0.5 µM and 0.4 µM, respectively. For the same compound, in [2], the tolerability result is listed as “well tolerated”. Further, on USP7, the IC50 was less than 0.01 µM.

For orientation: CC50 means the concentration at which the toxic effect on the cells reaches its halfway point. In general, IC50 refers to the concentration at which inhibition is half-maximal.
